Results on 1 compound are retold here after article PMC10349806 (Nature Communications, 2023).

SMILES strings stand for the structures. Changes are numbered by the printed parent chain. “And” between values parts separate entries of the source, which are not always exact repeats. Identical values can stand only once.

In one assay the target is T1, PfCRT variant F268A (Plasmodium falciparum, UniProt Q9N623, A220S/F268A/I356T/K76T/M74I/N326S/N75E/Q271E/R371I).
T1 sequence (Q9N623 1-424 M74I/N75E/K76T/A220S/F268A/Q271E/N326S/I356T/R371I): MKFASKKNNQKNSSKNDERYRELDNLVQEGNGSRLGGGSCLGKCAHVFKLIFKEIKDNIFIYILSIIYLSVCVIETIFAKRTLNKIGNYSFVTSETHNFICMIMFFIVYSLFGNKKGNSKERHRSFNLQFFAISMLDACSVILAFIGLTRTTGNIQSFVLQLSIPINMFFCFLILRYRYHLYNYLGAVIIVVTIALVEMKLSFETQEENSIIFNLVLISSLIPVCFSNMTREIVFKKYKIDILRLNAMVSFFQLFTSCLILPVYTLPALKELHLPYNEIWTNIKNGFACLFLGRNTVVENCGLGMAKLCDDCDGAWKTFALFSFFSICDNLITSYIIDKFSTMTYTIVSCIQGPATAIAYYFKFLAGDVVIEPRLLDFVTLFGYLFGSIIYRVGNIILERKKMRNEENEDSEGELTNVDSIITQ
Kind of assay: CQ uptake assay, oocytes expressing F268A. The assay is classed as cell-based. As to the method: (§1) Site-directed mutagenesis of PfCRT^Dd2 was performed as described using the megaprimer method with overlap extension[21],[54]. The primer pairs used are listed in Supplementary Table 6. Please note that a codon-optimized and oocyte-adapted version of PfCRT^Dd2 was used[22] (Supplementary Fig. 16). The resulting DNA fragment was cloned into the SP64T expression vector and verified by sequencing.
(§2) Oocytes were obtained as described previously. Briefly, adult (>2 years old) female X. laevis frogs (NASCO) were anesthetized in a cooled solution of ethyl 3-amino benzoate methanesulfonate (0.1%, w/v), followed by a surgical removal of parts of the ovary. The ovary lobes were carefully dissected and small pieces of oocytes were incubated in Ca^2+-free ND96 buffer (96 mM NaCl, 2 mM KCl, 1 mM MgCl2 buffered with 5 mM HEPES/NaOH, pH 7.5) supplemented with collagenase D (0.1%, w/v; Roche), BSA (0.5%, w/v), and 9 mm Na2HPO4 at 18 °C for 14-16 h while gentle shaking. After incubation, the oocytes were carefully washed several times with ND96 buffer (96 mM NaCl, 2 mM KCl, 1.8 mM CaCl2, 1 mM MgCl2 buffered with 5 mM HEPES/NaOH, pH 7.5) supplemented with 100 mg l^−1 gentamycin). Defolliculated and healthy-looking stage V-VI oocytes were manually selected for RNA microinjection. The RNA was generated as following: The codon-optimized sequences of PfCRT variants were cloned into the pSP64T expression vector. After vector linearization using the restriction endonucleases BamHI or SalI (New England Biolabs), transcription was performed using the in vitro SP6 mMessage mMachine Kit (Ambion)[34]. The obtained RNA was kept at −80 °C and diluted with nuclease-free water to a concentration of 0.6 μg μl^−1. Precision-bore glass capillary tubes (3.5-inch glass capillaries; Drummond Scientific Co.) were pulled on a vertical puller (P-87 Flaming/Brown micropipette puller, Sutter Instrument Co.), graduated, and placed on a microinjector (Nanoject II Auto-Nanoliter Injector, Drummond Scientific Co.). 50 nl of nuclease-free water alone (control oocytes) or 50 nl of 0.6 μg μl^−1 RNA were injected under stereomicroscopic control. Injected oocytes were incubated for 46–72 h at 18 °C with twice-daily buffer changes before usage in experiments.
Drug uptake assays were performed as described previously[21],[22],[24],[34]. […] The direction of radio-labeled drug transport is here from the mostly acidic extracellular solution (pH 4.5 or 6.0, as indicated) into the oocyte cytosol (pH ∼ 7.2), which corresponds to the efflux of drug from the acidic digestive vacuole (pH 5.2) into the parasite cytoplasm (pH 7.2). The topology of PfCRT in the oolemma is such that both the N- and C-terminus face the extracellular milieu[3],[22]. In the parasite, the N- and C-terminus face the lumen of the digestive vacuole. CQ uptake kinetics were performed by incubating oocytes in ND96 buffer adjusted to a pH of 4.5, 5.0, 5.5, or 6.0 and supplemented with 50 nM [^3H]CQ and one of 7 different CQ concentrations (10 µM, 50 µM, 100 µM, 200 µM, 300 µM, 400 µM, 500 µM CQ). The reaction was stopped at the 60 min time point, which is in the linear uptake range[22],[34] (Supplementary Fig. 17). […] The radioactivity of each sample was measured using a liquid scintillation analyzer Tri-Carb 4910 TR (PerkinElmer). Oocytes that were injected with water instead of RNA were analyzed in parallel, representing the uptake of a drug by diffusion and/or endogenous permeation pathways. […]

For a further assay, the target named is T2, PfCRT variant D377A (Plasmodium falciparum, UniProt Q9N623, A220S/D377A/I356T/K76T/M74I/N326S/N75E/Q271E/R371I).
T2 sequence (Q9N623 1-424 M74I/N75E/K76T/A220S/Q271E/N326S/I356T/R371I/D377A): T1 sequence (Q9N623 1-424 M74I/N75E/K76T/A220S/F268A/Q271E/N326S/I356T/R371I) with A268F, D377A
Kind of assay: CQ uptake assay, oocytes expressing D377A. The assay is classed as cell-based. As to the method: as §1, §2
Drug uptake assays were performed as described previously[21],[22],[24],[34]. […] The direction of radio-labeled drug transport is here from the mostly acidic extracellular solution (pH 4.5 or 6.0, as indicated) into the oocyte cytosol (pH ∼ 7.2), which corresponds to the efflux of drug from the acidic digestive vacuole (pH 5.2) into the parasite cytoplasm (pH 7.2). The topology of PfCRT in the oolemma is such that both the N- and C-terminus face the extracellular milieu[3],[22]. In the parasite, the N- and C-terminus face the lumen of the digestive vacuole. CQ uptake kinetics were performed by incubating oocytes in ND96 buffer adjusted to a pH of 4.5, 5.0, 5.5, or 6.0 and supplemented with 50 nM [^3H]CQ and one of 7 different CQ concentrations (10 µM, 50 µM, 100 µM, 200 µM, 300 µM, 400 µM, 500 µM CQ). The reaction was stopped at the 60 min time point, which is in the linear uptake range[22],[34] (Supplementary Fig. 17). For determination of the amount of drug uptake for each oocyte, the reaction medium was removed and the oocytes were washed three times with 2 ml of ice-cold ND96 buffer. Each oocyte was individually transferred to a scintillation vial containing 5% sodium dodecyl sulfate (200 μl) for lysis. The radioactivity of each sample was measured using a liquid scintillation analyzer Tri-Carb 4910 TR (PerkinElmer). Oocytes that were injected with water instead of RNA were analyzed in parallel, representing the uptake of a drug by diffusion and/or endogenous permeation pathways. The resulting value represents the “background“ level of drug accumulation in oocytes (in-depth discussion in[22]). […]

[1] abbreviates: F268A, 50 µM CQ, 1 h, mean ± SEM.
Where [2] appears, read: pH 4.5, single replicates, Fig 1d left.
Where [3] appears, read: pH 6.0, single replicates, Fig 1d left.
Where [4] appears, read: D377A, 50 µM CQ, 1 h, mean ± SEM.

In the case of `CCN(CC)CCCC(C)Nc1ccnc2cc(Cl)ccc12` (centres unmarked) [CQ, chloroquine], the “Activity at pH 4.5” value is 1.06 ± 0.19 pmol h-1 oocyte-1 at PfCRT variant F268A (setting [1]) and 0.62 ± 0.01 pmol h-1 oocyte-1 on PfCRT variant D377A (setting [4]). The results for the “Activity at pH 6.0” value at PfCRT variant F268A (setting [1]) and at PfCRT variant D377A (setting [4]) were 2.93 ± 0.28 pmol h-1 oocyte-1 and 1.44 ± 0.13 pmol h-1 oocyte-1, respectively. Also, the R-value worked out at 0.40 ± 0.10 on PfCRT variant F268A (F268A, CQ transport at pH 4.5 / pH 6.0) and 0.44 ± 0.04 on PfCRT variant D377A (D377A, CQ transport at pH 4.5 / pH 6.0). The “F268A transport activity pH 4.5” value on PfCRT variant F268A (setting [2]) is 0.75 pmol oocyte-1 h-1 and 1.37 pmol oocyte-1 h-1 and 0.63 pmol oocyte-1 h-1 and 1.50 pmol oocyte-1 h-1. Also, the “F268A transport activity pH 6.0” value on PfCRT variant F268A (setting [3]) was 3.49 pmol oocyte-1 h-1 and 2.31 pmol oocyte-1 h-1 and 3.48 pmol oocyte-1 h-1 and 2.45 pmol oocyte-1 h-1. The “D377A transport activity pH 4.5” value on PfCRT variant D377A (setting [2]) was 0.64 pmol oocyte-1 h-1 and 0.61 pmol oocyte-1 h-1. Also, on PfCRT variant D377A (pH 4.5 vs pH 6.0, Fig 1d left), the “D377A R-value” is 0.44 and 0.36 and 0.52. For the same compound, the “D377A transport activity pH 6.0” value on PfCRT variant D377A (setting [3]) was 1.44 pmol oocyte-1 h-1 and 1.71 pmol oocyte-1 h-1 and 1.17 pmol oocyte-1 h-1.
